Results taken from patent US20120093947A1, “METHOD OF TREATING REACTIVE AIRWAY DISEASE” (UNITED STATES DEPARTMENT OF VETERANS AFFAIRS, priority 2009, published 2012).
Where two headings read alike, the source gives them in different places.

Columns and labels:
[1] = molecular target: T1, LPO (Bos taurus, UniProt P80025); test: EPR of MNP adducts with radicals from β2-agonists generated by LPO/H2O2; format: biochemical, bovine; settings: pH 8.0
T1 construct: Lactoperoxidase (LPO) from bovine milk (EC 1.11.1.7); purchased Sigma-Aldrich Co. (St. Louis, Mo.); host or cells: bovine milk (natural source)
Experimental: Formation of free radicals from β2-agonists is studied in samples prepared in 100 mM phosphate buffer (pH 7.0 and 8.0)/DTPA (0.2 mM) (total volume 250 μL) containing MNP, MPO (or LPO) and the agonists. The reaction is initiated by the addition of H2O2 as the last component. In experiments in which H2O2 was generated using glucose (1 mM) and glucose oxidase (3.9 μg/mL), glucose oxidase is added as a last component. The sample is transferred to a flat aqueous EPR cell and recording is started 1 minute after initiation of the reaction. Typically, spectra of MNP adducts are recorded using microwave power 20 mW, modulation amplitude 0.1 mT, receiver gain 2×10^5, conversion time 40.96 ms, time constant 81.92 ms, and scan rate of 10 mT/41.92 s. EPR spectra constitute an average of 5 scans and represent results of typical experiments. Unless stated otherwise, direct EPR measurements (spin traps omitted) of free radicals derived from β2-agonists are performed using conditions similar to those for the detection of MNP adducts. EPR spectra are simulated using WINSIM software developed at NIEHS/NIH (RTP, NC).
The effect of methimazole and dapsone on the formation of free radicals from drugs is studied in phosphate buffers (pH 7.0 and 8.0) containing DTPA (0.2 mM) and MNP (10 mM in dimers). Oxidation is carried out by MPO (0.43 units/mL)/H2O2 (37 μM) and LPO (0.39 μM)/glucose (1 mM)/glucose oxidase (0.8 μg/mL). […]
Table 3, below, summarizes the effects of dapsone and methimazole on EPR spectra of MNP adducts with radicals from fenoterol and terbutaline generated by MPO/H2O2 and LPO/H2O2 systems at a pH of 8.0. Concentrations of MNP spin adducts were calculated as second integrals of the low-field component of the respective spectra and are expressed as % of control samples (no additives). Results equal the means±SE of at least two measurements.
. […] This is consistent with the known inhibitory action of both methimazole and dapsone on LPO activity and only methimazole on MPO activity. Thomas et al. (1994) J. Dent. Res. 73(2):544-55. Results obtained at pH 7.0 qualitatively agree with those at pH 8.0.

[2] = molecular target: T1, LPO; test: Nitration of salbutamol by LPO/H2O2/NO2−, A410; format: biochemical, bovine; settings: for Nitrophenols, (%) LPO: […] NaNO2, 4 mM H2O2, 65 nM LPO, pH 7.0, 10 min, ΔA410 versus control
Experimental: Spectrophotometric Measurements. Spectra are measured using an Agilent diode array spectrophotometer model 8453 (Agilent Technologies, Inc., Santa Clara, Calif.). Nitration of salbutamol is studied by measuring absorption spectra at designated time points following the start of the reaction. Samples are prepared in 100 mM phosphate buffers (pH 7.0). All buffers contained DTPA (100 μM) or are pretreated with Chelex-100 before use, and measurements are performed at ambient temperature of 20° C. Typically, the reaction is started by the addition of a small aliquot of H2O2 or the desired peroxidase. Time course measurements are carried out following changes in absorbance at 410 nm in 30 second intervals versus absorbance at 800 nm, where none of the compounds absorb.
Ascorbate (AscH^−) is an effective natural antioxidant protecting airways from oxidative injury. Cross et al., (1994) Environ. Health Perspect. 102 (suppl. 10):185-191. Its concentration in the respiratory tract lining fluid is estimated to be near 100 μM (Id.). We examine the effect of AscH^− on nitration of 100 μM salbutamol by 67 nM LPO, 4 mM H2O2, and 3.5 mM of NaNO2 by measuring absorption at 410 nm. […] The duration of the lag period depends on AscH^− concentration. […] See, e.g., Reszka et al. (1999) Free Radic. Biol. & Med. 26:669-678.
As noted earlier, methimazole is an antithyroid drug, an effective inhibitor of LPO activity. 100 μM of salbutamol is reacted with 73 nM LPO, 3.5 mM NaNO2, and 4 mM H2O2 at pH buffer 7.0 in the presence of 0, 27, 55, and 109 μM methimazole (shown in FIG. 9, section A, traces a-d, respectively). Traces c and d also indicate by arrow when additional LPO is added to the system. […] In contrast to effects exerted by AscH^− or SCN^−, methimazole-dependent inhibition is permanent and is probably due to inactivation of the enzyme, since a second dose of LPO reactivates the process (FIG. 9, section A, trace c).
Dapsone, an anti-inflammatory and anti-leprotic agent, is a potent inhibitor of LPO and MPO. See, e.g., Kettle et al. (1991) Biochem. Pharmacol. 41(10):1485-1492; Bozeman et al. (1992) Biochem. Pharmacol. 44(2):553-563. 97 μM of salbutamol is reacted with 65 nM LPO, 3.4 mM NaNO2, and 4 mM H2O2 at pH buffer 7.0 in the presence of 0, 2.5, 5, 10, 50, and 100 μM dapsone (shown in FIG. 10, traces a-f, respectively). The arrows in traces d and e of FIG. 10 indicate where additional LPO is added to the system. […] Dapsone at 50 μM inhibited nitration by approximately 86%. Given the high concentrations of NaNO2 and H2O2 used in this system, dapsone appears to be a potent blocker of nitration.
The extent of nitration is expressed as a change in ΔA410 versus control (dapsone omitted) taken as 100% after 10, 30, and 60 minute reactions for LPO, MPO, and EPO nitrating systems, respectively. Results equal the means±SE of at least two measurements. In the LPO system, 100 μM of salbutamol, 3.4 mM of NaNO2, 4 mM of H2O2, and 65 nM of LPO is used. In the MPO system, 50 μM of salbutamol, 5.0 mM of NaNO2, 5 mM of H2O2, and 0.2 U/mL of MPO is used. In the EPO system, 50 μM of salbutamol, 5 mM of NaNO2, 2 mM of H2O2, and 0.075 U/mL of EPO is used. All reactions were carried out in pH 7.0 phosphate buffer containing DMSO (5% v/v). The term “nitrophenols” includes nitrosalbutamol (N-Sal) and salbutamol-derived nitrophenol (N—ArOH).

Row | SMILES | Concentration of MNP spin adducts, Fenoterol, +LPO + H2O2, % of control ([1]; fenoterol 0.047 mM, inhibitor 1 mM, reagent H2O2 37 μM) | remaining activity at 1000 µM ([1]; fenoterol 0.047 mM, inhibitor 1 mM, reagent H2O2 37 μM, read-out: Concentration of MNP spin adducts, Fenoterol, +LPO + H2O2, % of control) | Concentration of MNP spin adducts, Terbutaline, +LPO + H2O2, % of control ([1]; terbutaline 0.047 mM, inhibitor 1 mM, reagent H2O2 37 μM) | remaining activity at 1000 µM ([1]; terbutaline 0.047 mM, inhibitor 1 mM, reagent H2O2 37 μM, read-out: Concentration of MNP spin adducts, Terbutaline, +LPO + H2O2, % of control) | Nitrophenols, (%) LPO ([2]; dapsone 2.5 μM, 100 μM salbutamol) | Nitrophenols, (%) LPO ([2]; dapsone 5.0 μM, 100 μM salbutamol) | Nitrophenols, (%) LPO ([2]; dapsone 10.0 μM, 100 μM salbutamol) | inhibition at 50 µM ([2]; dapsone 50 μM, 97 μM salbutamol, 65 nM LPO, 3.4 mM NaNO2, 4 mM H2O2, pH 7.0) | Nitrophenols, (%) LPO ([2]; dapsone 50.0 μM, 100 μM salbutamol) | Concentration of MNP spin adducts, Fenoterol, +LPO + H2O2, % of control ([1]; fenoterol 0.47 mM, inhibitor 0.86 mM, H2O2 from glucose 1 mM/glucose oxidase 0.8 μg/mL) | remaining activity at 860 µM ([1]; fenoterol 0.47 mM, inhibitor 0.86 mM, H2O2 from glucose 1 mM/glucose oxidase 0.8 μg/mL, read-out: Concentration of MNP spin adducts, Fenoterol, +LPO + H2O2, % of control) | Concentration of MNP spin adducts, Terbutaline, +LPO + H2O2, % of control ([1]; terbutaline 0.47 mM, inhibitor 0.86 mM, H2O2 from glucose 1 mM/glucose oxidase 0.8 μg/mL) | remaining activity at 860 µM ([1]; terbutaline 0.47 mM, inhibitor 0.86 mM, H2O2 from glucose 1 mM/glucose oxidase 0.8 μg/mL, read-out: Concentration of MNP spin adducts, Terbutaline, +LPO + H2O2, % of control) | Nitration of salbutamol by LPO/H2O2/NO2− (A410 versus time) ([2]; methimazole close to 100 μM (109 μM), 100 μM salbutamol, 73 nM LPO, 3.5 mM NaNO2, 4 mM H2O2, pH 7.0)
1 | Nc1ccc(S(=O)(=O)c2ccc(N)cc2)cc1 [Dapsone, diamino-diphenyl sulfone] | markedly inhibit | 13.9 ± 0.6% | markedly inhibit | 54.6 ± 20% | 72.8 ± 2.0% | 58.4 ± 1.4% | 45.7 ± 2.0% | ~86% | 14.0 ± 2.7% |  |  |  |  | 
2 | Cn1cc[nH]c1=S [Methimazole, 1-methyl-3H-imidazole-2-thione] |  |  |  |  |  |  |  |  |  | markedly inhibit | 26.9 ± 8.2% | markedly inhibit | 33.9% | completely prevents
